Data on ten compounds can be found in patent publication US20250034601A1, “HETERODIMERIC BENZALDEHYDE SYNTHASE, METHODS OF PRODUCING, AND USES THEREOF” (Purdue Research Foundation, priority 2021, published 2025).

Experiment [1] concerns pds-bsα-bsβ VIGS petunia flowers. Put plainly: Emission of volatiles from pds-bsα-bsβ VIGS petunia flowers. As to conditions: 2-day-old VIGS flowers, volatiles collected 20:00 to 21:00, n=6. The class given is in vivo, Petunia hybrida. The method, then: Petunia hybrida cv. Mitchell diploid (W115, Ball Seed Co., Oxford, Canada) plants were grown under standard greenhouse condition with a light period from 6:00 to 21:00 hour. To link the simultaneous downregulation of PhBSα and PhBSβ6 genes via virus induced gene silencing (VIGS) to the silencing of a marker gene, a previously generated pTRV2-PDS construct containing a 300 bp fragment of Nicotiana benthamiana Phytoene Desaturase (PDS) (CDS nucleotides 580˜879; SEQ ID NO: 11) was used (deposited with the National Center for Biotechnology Information (NCBI) GenBank and having the accession number DQ469932.1 (accepted Dec. 4, 2007)). See Spitzer et al., Reverse genetics of floral scent: Application of tobacco rattle virus-based gene silencing in petunia, Plant Physiology 145: 1241-1250 (2007). The N. benthamiana PDS fragment shared 94.3% sequence identity with P. axillaris PDS gene.
Next, a 301 bp fragment of PhBSα (CDS nucleotides 3˜303 of SEQ ID NO: 3) and a 301 bp fragment of PhBSβ6 (CDS nucleotides 3˜303 of SEQ ID NO: 4) were tandemly cloned downstream of the PDS fragment in a pTRV2-PDS plasmid using ClonExpress II One Step Cloning Kit (Vazyme Biotech Co., Piscataway, NJ), yielding the final construct pTRV2-PDS-PhBSαp.
All binary vectors, including pTRV1, deposited with the NCBI GenBank and having accession number AF406990 (accepted Jun. 11, 2002), pTRV2-PDS and pTRV2-PDS-PhBSαp, were transformed into Agrobacterium tumefaciens strain GV3101. Single colonies for each construct were cultured at 28° C. in Luria-Bertani (LB) medium containing 50 mg/L rifampicin, 50 mg/L gentamycin, and 50 mg/L kanamycin to an optical density at a wavelength of 600 nm (OD600) of 2.4.
Cells were pelleted, washed with infiltration buffer (50 mM MES, pH 5.7, 2 mM Na3PO4, 0.5% glucose and 200 μM acetosyringone), and incubated in the same buffer for 2 hours at room temperature. Yoo et al., An alternative pathway contributes to phenylalanine biosynthesis in plants via a cytosolic tyrosine:phenylpyruvate aminotransferase, Nature Communications 4: 2833 (2013). […]
Petunia flower volatiles were collected by a closed-loop stripping method and analyzed by gas chromatography mass spectrometry (GC-MS) as described in Qian et al., Completion of the cytosolic post-chorismate phenylalanine biosynthetic pathway in plants, Nature Communications 10: 15 (2019), with minor modifications. […] The extracts were pooled together and concentrated to about 200 μL under a mild stream of nitrogen gas, and samples were analyzed on an Agilent 7890B-5977B gas chromatography mass spectrometry (GC-MS) system (Agilent Technologies, Inc., Santa Clara, CA) using an analytical method translated from an established method with the Agilent 6890N-5975B GC-MS system as previously described. […]

Experiment [2] deals with benzaldehyde synthase (BS) activity in petunia flower crude protein extracts. Put plainly: BS activity in petunia flower crude protein extracts with different substrates and cofactors (GC-MS). It counts as biochemical, Petunia hybrida. Conditions: substance supplied as cofactor with benzoyl-CoA or in place of benzoyl-CoA; 30 minutes at 28° C. The method, then:
The crude protein extracts were obtained by extraction of petunia petal tissue with buffer A (3:1 [v/w] buffer/tissue). After centrifugation of slurry at 15,000 g for 20 minutes, the supernatant was desalted with Econo-Pac 10DG Columns (Bio-Rad, Hercules, CA) according to the manufacturer's protocol and 20 μL of desalted protein was used in the activity assays. The reaction was performed for 30 minutes at 28° C. and the product was extracted with 200 μL DCM containing 1 μg naphthalene (internal standard). After centrifugation at 15,000 g for 20 minutes, 2 μL of the bottom DCM phase was injected in GC-MS, with results shown in FIG. 3A. The compounds labeled in FIG. 3A with numbers are (1) benzaldehyde, (2) benzylalcohol, (3) internal standard (naphthalene), and (4) benzylbenzoate and the different assay mixtures described above are identified with their above-associated letters.

In experiment [3] the target is T1, Solanum lycopersicum (tomato) benzaldehyde synthase (SlBS), recombinant heterodimer SlBSα (SEQ ID NO: 7) / SlBSβ (SEQ ID NO: 10), wild type, MBP-tagged (Solanum lycopersicum, UniProt A0A3Q7HAN1+A0A3Q7ILR9).
T1 sequence (A0A3Q7ILR9 with tags, fused parts or gaps): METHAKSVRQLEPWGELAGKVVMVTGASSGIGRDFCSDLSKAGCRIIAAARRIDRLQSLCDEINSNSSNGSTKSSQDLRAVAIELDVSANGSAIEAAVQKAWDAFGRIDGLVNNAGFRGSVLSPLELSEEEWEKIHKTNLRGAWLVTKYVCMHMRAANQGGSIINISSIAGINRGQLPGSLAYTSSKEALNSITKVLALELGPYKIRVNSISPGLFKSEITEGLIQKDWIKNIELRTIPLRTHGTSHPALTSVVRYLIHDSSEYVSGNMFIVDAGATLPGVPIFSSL
T1 sequence (A0A3Q7HAN1 1-266): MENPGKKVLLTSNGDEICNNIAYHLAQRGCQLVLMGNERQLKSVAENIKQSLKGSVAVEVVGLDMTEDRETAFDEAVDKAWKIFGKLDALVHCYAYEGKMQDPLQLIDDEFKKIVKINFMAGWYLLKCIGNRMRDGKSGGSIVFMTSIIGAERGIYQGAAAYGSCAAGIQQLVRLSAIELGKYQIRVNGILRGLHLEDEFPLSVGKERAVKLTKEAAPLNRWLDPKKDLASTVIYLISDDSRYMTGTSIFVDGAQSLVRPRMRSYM
Nature of the experiment: Kinetic parameters of recombinant SlBS (BS activity assay, HPLC; benzoyl-CoA + NADPH to benzaldehyde). It counts as biochemical. As to conditions: measured at 4 mM NADPH; pH 6.5, 28° C. The method, then: (§1) The reaction was initiated by adding a protein and incubated at 28° C. for 30 minutes, and the reactions were then terminated by adding 100 μL of 100% ice-cold methanol (MeOH). The BS enzyme assays were performed at an appropriate enzyme concentration so that reaction velocity was proportional to enzyme concentration and linear during the incubation time period. Km and Vmax were determined by non-linear fit to the Michaelis-Menten equation using Graphpad Prism, v8.2.0.
(§2) Triplicate assays were performed for all data points.
(§3) After centrifugation at 15,000 g for 20 minutes, 5 μL of the supernatant were subjected to high-performance liquid chromatography (HPLC) analysis using an Agilent 1260 Infinity II system (Agilent Technologies, Inc., Santa Clara, CA) equipped with an InfinityLab Poroshell 120 EC-C18 column (3.0×150 mm, 2.7 μm) maintained at 35° C. Products were separated with a 15-minute linear gradient of 10% aqueous acetonitrile solution to 100% acetonitrile and monitored at 248 nm using a diode array detector (DAD). Benzaldehyde was identified by comparing the retention time and absorption spectrum with authentic standard.
(§4) Quantitation was achieved by using standard curve generated from authentic standard and product verification was performed by GC-MS. Namely, crude protein extracts were obtained by extraction of petunia petal tissue with buffer A (3:1 [v/w] buffer/tissue). […]

The subject of experiment [4] is Petunia hybrida benzaldehyde synthase (PhBS), recombinant heterodimer PhBSα (SEQ ID NO: 1) / PhBSβ (SEQ ID NO: 2), wild type, MBP-tagged. Nature of the experiment: Kinetic parameters of recombinant PhBS (BS activity assay, HPLC; benzoyl-CoA + NADPH to benzaldehyde). The class given is biochemical. As to conditions: measured at 4 mM NADPH. Here is the method: as §1, §2, §3, §4

For experiment [5], the system named is Prunus dulcis (almond) benzaldehyde synthase (PdBS), recombinant heterodimer PdBSα (SEQ ID NO: 6) / PdBSβ (SEQ ID NO: 9), wild type, MBP-tagged. Nature of the experiment: Kinetic parameters of recombinant PdBS (BS activity assay, HPLC; benzoyl-CoA + NADPH to benzaldehyde). The class given is biochemical. As to conditions: measured at 4 mM NADPH. Here is the method: as §1, §2, §3
Quantitation was achieved by using standard curve generated from authentic standard and product verification was performed by GC-MS. Namely, crude protein extracts were obtained by extraction of petunia petal tissue with buffer A (3:1 [v/w] buffer/tissue). After centrifugation of slurry at 15,000 g for 20 minutes, the supernatant was desalted with Econo-Pac 10DG Columns (Bio-Rad Laboratories, Inc., Hercules, CA) according to the manufacturer's protocol and 20 μL of desalted protein was used in BS activity assays. The reaction was performed for 30 minutes at 28° C. and the product was extracted with 200 μL DCM containing 1 μg naphthalene (internal standard). After centrifugation at 15,000 g for 20 minutes, 2 μL of the bottom DCM phase was injected in GC-MS. […]

The mark [6] stands for this setting: assuming one catalytic center per heterodimer of BS.

With `O=Cc1ccccc1` [Benzaldehyde (D5, 111), Benzaldehyde], the “reduction of emission in pds-bsα-bsβ flowers relative to pds control” value in experiment [1] is given as 68.3%.
On the same count and under the same terms, the result for `OCc1ccccc1` [Benzylalcohol (D5, 113), Benzylalcohol] reads 62.9%.
For `NC(=O)c1ccc[n+]([C@@H]2O[C@H](COP(=O)([O-])OP(=O)(O)OC[C@H]3O[C@@H](n4cnc5c(N)ncnc54)[C@H](OP(=O)(O)O)[C@@H]3O)[C@@H](O)[C@H]2O)c1` [NADP^+], the “benzaldehyde formation by crude extracts” value in experiment [2] is reported as “No benzaldehyde was formed”.
Same read-out and setting: then `NC(=O)c1ccc[n+]([C@@H]2O[C@H](COP(=O)([O-])OP(=O)(O)OC[C@H]3O[C@@H](n4cnc5c(N)ncnc54)[C@H](O)[C@@H]3O)[C@@H](O)[C@H]2O)c1` [NAD^+], with “No benzaldehyde was formed”.
In the case of `O=CCc1ccccc1` [Phenylacetaldehyde (D7 + D8, 97 + 98), Phenylacetaldehyde], the “reduction of emission in pds-bsα-bsβ flowers relative to pds control” value in experiment [1] is reported as 41.2%.
On to `O=C(O)c1ccccc1` [benzoic acid], for which the “benzaldehyde formation by crude extracts” value in experiment [2] is “No benzaldehyde was formed”.
As usually defined, the Km is the substrate concentration at which the rate is half of its maximum. `CC(C)(COP(=O)(O)OP(=O)(O)OC[C@H]1O[C@@H](n2cnc3c(N)ncnc32)[C@H](O)[C@@H]1OP(=O)(O)O)[C@@H](O)C(=O)NCCC(=O)NCCSC(=O)c1ccccc1` [benzoyl-CoA]: the “Vmax (benzoyl-CoA)” value in experiment [3] is 13.2 ± 3.0 nKat/mg; in experiment [4] (pH 6.5, 28° C.), 63.5 ± 2.7 nKat/mg; in experiment [5] (pH 6.5, 28° C.), 35.4 ± 1.3 nKat/mg. Moreover, the “kcat (benzoyl-CoA)” value in experiment [4] (setting [6]) was 9.39 ± 0.40 s⁻¹; in experiment [5] (setting [6]), 5.26 ± 0.20 s⁻¹. In addition, the Km in experiment [5] (read-out: Km for benzoyl-CoA, apparent, pH 6.5, 28° C.) worked out at 629 ± 67.7 µM.
As for `O=C(OCc1ccccc1)c1ccccc1` [benzylbenzoate], the “reduction of emission in pds-bsα-bsβ flowers relative to pds control” value in experiment [1] was determined as 35.6%.
Take `O=C(O)C=Cc1ccccc1` [cinnamic acid]: the “benzaldehyde formation by crude extracts” value in experiment [2] is “No benzaldehyde was formed”.
Still for that read-out and setting: then “nicotinamide adenine dinucleotide phosphate [NADPH]”, with “Efficient conversion of benzoyl-CoA to benzaldehyde”.
